Assay results: the supplement of paper PMC10627819

Columns and labels:
[1] = system: B. subtilis 168; assay: fitness (endpoint OD595 vs no drug) (fraction); higher = more growth
Outline: (§1)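 At 37 °C, bacteria in TSB, LB Lennox or CY were grown in 384-well plates from a starting OD595 of 0.01. OD595 was measured every 30 min for 14 h, with the first reading used as background. Fitness is the optical density at the switch to stationary phase as a fraction of the robust mean of no-drug control wells, capped at 1.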

[2] = system: S. aureus DSM 20231; assay: as above
Outline: as §1

[3] = system: S. aureus Newman; assay: as above
Outline: as §1

[4] = system: S. pneumoniae D39V; assay: as above
Outline: as §1

[5] = system: B. subtilis 168; assay: Bliss interaction score (quartile over a dose matrix) (fitness difference); higher = more antagonism (negative = synergy)
Outline: (§2)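 Quartiles summarise the Bliss score over technical, biological and donor/recipient replicates, where the score is observed minus expected fitness under a product model. Expected fitness uses single-drug values inferred from combination data. Fitness is OD595 at entry into stationary phase over the plate's robust no-drug mean, capped at 1.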

[6] = system: S. aureus DSM 20231; assay: as above
Outline: as §2

[7] = system: S. aureus Newman; assay: as above
Outline: as §2

[8] = system: S. pneumoniae D39V; assay: as above
Outline: as §2
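Throughout, for Bliss interaction score (quartile over a dose matrix): first quartile when negative (synergy) and third quartile when positive (antagonism).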

COc1c(N2C[C@@H]3CCCN[C@@H]3C2)c(F)cc2c(=O)c(C(=O)O)cn(C3CC3)c12 [Moxifloxacin] + CC1=C\[C@@H](O)CC(=O)Cc2nc(co2)C(=O)N2CCC=C2C(=O)O[C@H](C(C)C)[C@H](C)/C=C/C(=O)NC\C=C\1 [Virginiamycin M1]
Details	fitness
[1], first compound 0.0312 µg/mL, partner 0.0625 µg/mL	0.0441
[1], first compound 0.0312 µg/mL, partner 0.125 µg/mL	0.0556
[1], first compound 0.0312 µg/mL, partner 0.25 µg/mL	0.0499
[1], first compound 0.0625 µg/mL, partner 0.0625 µg/mL	0.0365
[1], first compound 0.0625 µg/mL, partner 0.125 µg/mL	0.0573
[1], first compound 0.0625 µg/mL, partner 0.25 µg/mL	0.0434
[1], first compound 0.125 µg/mL, partner 0.0625 µg/mL	0.044
[1], first compound 0.125 µg/mL, partner 0.125 µg/mL	0.0517
[1], first compound 0.125 µg/mL, partner 0.25 µg/mL	0.0468
[1], first compound 2 µg/mL, partner 0.0625 µg/mL	0.0224
[1], first compound 2 µg/mL, partner 0.125 µg/mL	0.0234
[1], first compound 2 µg/mL, partner 0.25 µg/mL	0.0324
[1], first compound 4 µg/mL, partner 0.0625 µg/mL	0.0209
[1], first compound 4 µg/mL, partner 0.125 µg/mL	0.0242
[1], first compound 4 µg/mL, partner 0.25 µg/mL	0.0192
[1], first compound 8 µg/mL, partner 0.0625 µg/mL	0.0121
[1], first compound 8 µg/mL, partner 0.125 µg/mL	0.0128
[1], first compound 8 µg/mL, partner 0.25 µg/mL	0.0206
[2], first compound 0.0075 µg/mL, partner 0.0625 µg/mL	0.812
[2], first compound 0.0075 µg/mL, partner 0.125 µg/mL	0.901
[2], first compound 0.0075 µg/mL, partner 0.25 µg/mL	0.81
[2], first compound 0.015 µg/mL, partner 0.0625 µg/mL	0.702
[2], first compound 0.015 µg/mL, partner 0.125 µg/mL	0.72
[2], first compound 0.015 µg/mL, partner 0.25 µg/mL	0.776
[2], first compound 0.03 µg/mL, partner 0.0625 µg/mL	0.609
[2], first compound 0.03 µg/mL, partner 0.125 µg/mL	0.67
[2], first compound 0.03 µg/mL, partner 0.25 µg/mL	0.662
[3], first compound 0.0075 µg/mL, partner 0.0625 µg/mL	0.764
[3], first compound 0.0075 µg/mL, partner 0.125 µg/mL	0.762
[3], first compound 0.0075 µg/mL, partner 0.25 µg/mL	0.795
[3], first compound 0.015 µg/mL, partner 0.0625 µg/mL	0.545
[3], first compound 0.015 µg/mL, partner 0.125 µg/mL	0.556
[3], first compound 0.015 µg/mL, partner 0.25 µg/mL	0.517
[3], first compound 0.03 µg/mL, partner 0.0625 µg/mL	0.0697
[3], first compound 0.03 µg/mL, partner 0.125 µg/mL	0.0796
[3], first compound 0.03 µg/mL, partner 0.25 µg/mL	0.0787
[4], first compound 0.0037 µg/mL, partner 2 µg/mL	0.802
[4], first compound 0.005 µg/mL, partner 0.5 µg/mL	0.999
[4], first compound 0.005 µg/mL, partner 1 µg/mL	≥ 1
[4], first compound 0.005 µg/mL, partner 2 µg/mL	0.99
[4], first compound 0.0075 µg/mL, partner 2 µg/mL	0.869
[4], first compound 0.01 µg/mL, partner 0.5 µg/mL	≥ 1
[4], first compound 0.01 µg/mL, partner 1 µg/mL	0.992
[4], first compound 0.01 µg/mL, partner 2 µg/mL	0.979
[4], first compound 0.015 µg/mL, partner 2 µg/mL	0.811
[4], first compound 0.02 µg/mL, partner 0.5 µg/mL	0.981
[4], first compound 0.02 µg/mL, partner 1 µg/mL	0.995
[4], first compound 0.02 µg/mL, partner 2 µg/mL	0.963

one replicate
Details	fitness
[2], first compound 0.0075 µg/mL, partner 0.5 µg/mL	0.785
[2], first compound 0.0075 µg/mL, partner 1 µg/mL	0.81
[2], first compound 0.015 µg/mL, partner 0.5 µg/mL	0.787
[2], first compound 0.015 µg/mL, partner 1 µg/mL	0.793
[2], first compound 0.03 µg/mL, partner 0.5 µg/mL	0.693
[2], first compound 0.03 µg/mL, partner 1 µg/mL	0.734
[2], first compound 0.06 µg/mL, partner 0.0625 µg/mL	0.686
[2], first compound 0.06 µg/mL, partner 0.125 µg/mL	0.695
[2], first compound 0.06 µg/mL, partner 0.25 µg/mL	0.69
[2], first compound 0.12 µg/mL, partner 0.0625 µg/mL	0.462
[2], first compound 0.12 µg/mL, partner 0.125 µg/mL	0.471
[2], first compound 0.12 µg/mL, partner 0.25 µg/mL	0.46
[3], first compound 0.0075 µg/mL, partner 0.5 µg/mL	0.659
[3], first compound 0.0075 µg/mL, partner 1 µg/mL	0.758
[3], first compound 0.0075 µg/mL, partner 2 µg/mL	0.665
[3], first compound 0.015 µg/mL, partner 0.5 µg/mL	0.654
[3], first compound 0.015 µg/mL, partner 1 µg/mL	0.643
[3], first compound 0.015 µg/mL, partner 2 µg/mL	0.579
[3], first compound 0.03 µg/mL, partner 0.5 µg/mL	0.465
[3], first compound 0.03 µg/mL, partner 1 µg/mL	0.414
[3], first compound 0.03 µg/mL, partner 2 µg/mL	0.323
[4], first compound 0.0037 µg/mL, partner 0.15 µg/mL	0.808
[4], first compound 0.0037 µg/mL, partner 0.3 µg/mL	0.758
[4], first compound 0.0037 µg/mL, partner 0.5 µg/mL	0.97
[4], first compound 0.0037 µg/mL, partner 1 µg/mL	0.95
[4], first compound 0.0075 µg/mL, partner 0.15 µg/mL	0.911
[4], first compound 0.0075 µg/mL, partner 0.3 µg/mL	0.877
[4], first compound 0.0075 µg/mL, partner 0.5 µg/mL	0.965
[4], first compound 0.0075 µg/mL, partner 1 µg/mL	0.934
[4], first compound 0.015 µg/mL, partner 0.15 µg/mL	0.832
[4], first compound 0.015 µg/mL, partner 0.3 µg/mL	0.843
[4], first compound 0.015 µg/mL, partner 0.5 µg/mL	0.933
[4], first compound 0.015 µg/mL, partner 1 µg/mL	0.873

Details	Bliss interaction score
[5]	-0.0191
[6]	-0.0567
[7]	-0.0536
[8]	0.065
